In patent US10913738B2 (BRISTOL-MYERS SQUIBB COMPANY, priority 2017, dated 2021):
Read-outs that look alike come from different tables or passages of the source.

Key:
[1] = test system: MLKL phosphorylation in HT29-L23 human colorectal adenocarcinoma cells; experiment: MLKL Phosphorylation High-Content Assay; assay type: cell-based; settings: Homo sapiens
Method in brief: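 Cells incubated six hours at 37° C., then phospho-MLKL (S358) immunostained overnight at 4° C. and imaged by high-content microscopy. Phosphorylation quantified as mean circ-ring average intensity ratio; IC50 and Ymax from 4-parameter logistic fits.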

[2] = target: T1, His-GST-TVMV-hRIPK1(1-324) (Homo sapiens, UniProt Q13546); experiment: RIPK1 HTRF Binding Assay
T1 construct: The coding region of human RIPK1(1-324) flanked by NdeI site at 5′ end; made in house; host or cells: Spodoptera frugiperda (Sf9) insect cells, baculovirus
T1 sequence (Q13546 1-324): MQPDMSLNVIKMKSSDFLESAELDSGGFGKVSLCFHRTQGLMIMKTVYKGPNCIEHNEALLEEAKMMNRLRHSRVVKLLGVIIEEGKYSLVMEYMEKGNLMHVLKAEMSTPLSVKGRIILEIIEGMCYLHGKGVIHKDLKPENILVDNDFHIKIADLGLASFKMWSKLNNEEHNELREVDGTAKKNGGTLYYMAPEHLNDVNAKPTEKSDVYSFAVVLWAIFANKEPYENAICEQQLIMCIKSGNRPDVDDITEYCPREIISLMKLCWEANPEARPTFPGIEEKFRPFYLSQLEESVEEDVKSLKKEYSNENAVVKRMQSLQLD

[3] = x marks IC50 class >200 nM, read-out: pMLKL cell activity >200 nM
[4] = x marks IC50 class 20-200 nM, read-out: RIPK1 HTRF binding 20-200 nM
[5] = x marks IC50 class 20-200 nM, read-out: pMLKL cell activity 20-200 nM
[6] = x marks IC50 class <20 nM, read-out: RIPK1 HTRF binding <20 nM
[7] = x marks IC50 class <20 nM, read-out: pMLKL cell activity <20 nM

| Compound | IC50 [1, 3] [nM] | IC50 [2, 4] [nM] | IC50 [1, 5] [nM] | IC50 [2, 6] [nM] | IC50 [1, 7] [nM] |
| --- | --- | --- | --- | --- | --- |
| COc1nc(C)c(-c2ccn3nc(N)nc3c2)cc1C(=O)NCc1cc(F)cc(F)c1O[C@@H]1CCN(C)C1 [Example 359, (R)-5-(2-amino-[1,2,4]-triazolo[1,5-a]pyridin-7-yl)-N-(3,5-difluoro-2-((1-methylpyrrolidin-3-yl)oxy)benzyl)-2-methoxy-6-methylnicotinamide] | > 200 | 20 to 200 |  |  |  |
| COc1ncc(-c2ccn3nc(N)nc3c2)cc1C(=O)NCc1cc(F)cc(F)c1O[C@H]1CCOC1 [Example 360, (S)-5-(2-amino-[1,2,4]triazolo[1,5-a]pyridin-7-yl)-N-(3,5-difluoro-2-((tetrahydrofuran-3-yl)oxy)benzyl)-2-methoxynicotinamide] |  |  | 20 to 200 | < 20 |  |
| COc1ncc(-c2ccn3nc(N)nc3c2)cc1C(=O)NCc1cc(F)cc(F)c1OC1CCOC(C)C1 (stereo not shown) [Example 361, 5-(2-amino-[1,2,4]triazolo[1,5-a]pyridin-7-yl)-N-(3,5-difluoro-2-((2-methyltetrahydro-2H-pyran-4-yl)oxy)benzyl)-2-methoxynicotinamide] |  |  | 20 to 200 | < 20 |  |
| COc1ncc(-c2ccn3nc(N)nc3c2)cc1C(=O)NCc1cc(F)cc(F)c1OC1CC(C)OC(C)C1 (stereo not shown) [Example 362, 5-(2-amino-[1,2,4]triazolo[1,5-a]pyridin-7-yl)-N-(2-((2,6-dimethyltetrahydro-2H-pyran-4-yl)oxy)-3,5-difluorobenzyl)-2-methoxynicotinamide] |  | 20 to 200 | 20 to 200 |  |  |
| COc1ncc(-c2ccn3nc(N)nc3c2)cc1C(=O)NCc1cc(F)cc(F)c1O[C@@H]1CCOC1 [Example 363, (R)-5-(2-amino-[1,2,4]triazolo[1,5-a]pyridin-7-yl)-N-(3,5-difluoro-2-((tetrahydrofuran-3-yl)oxy)benzyl)-2-methoxynicotinamide] |  |  | 20 to 200 | < 20 |  |
| COc1ncc(-c2ccn3nc(N)nc3c2)cc1C(=O)NCc1cc(F)cc(F)c1OC1COC1 [Example 364, 5-(2-amino-[1,2,4]triazolo[1,5-a]pyridin-7-yl)-N-(3,5-difluoro-2-(oxetan-3-yloxy)benzyl)-2-methoxynicotinamide] |  |  | 20 to 200 | < 20 |  |
| COc1ncc(-c2ccn3nc(N)nc3c2)cc1C(=O)NCc1cccc(F)c1CN1CCOCC1 [Example 365, 5-(2-amino-[1,2,4]triazolo[1,5-a]pyridin-7-yl)-N-(3-fluoro-2-(morpholinomethyl)benzyl)-2-methoxynicotinamide] | > 200 | 20 to 200 |  |  |  |
| COc1nc(C)c(-c2ccn3nc(N)nc3c2)cc1C(=O)NCc1ncccc1OCC(F)(F)F [Example 366, 5-(2-amino-[1,2,4]triazolo[1,5-a]pyridin-7-yl)-2-methoxy-6-methyl-N-((3-(2,2,2-trifluoroethoxy)pyridin-2-yl)methyl)nicotinamide] | > 200 |  |  | < 20 |  |
| [2H]C([2H])([2H])N(Cc1cc(OC(F)(F)F)ccc1F)C(=O)c1cc(-c2ccn3nc(N)nc3c2)cnc1OC [Example 367, 5-(2-amino-[1,2,4]triazolo[1,5-a]pyridin-7-yl)-N-(2-fluoro-5-(trifluoromethoxy)benzyl)-2-methoxy-N-(methyl-d3)nicotinamide] |  |  |  | < 20 | < 20 |
| Nc1nc2cc(-c3cc(C(=O)NCc4cc(OC(F)(F)F)ccc4F)cnc3Cl)ccn2n1 [Example 368, 5-(2-Amino-[1,2,4]triazolo[1,5-a]pyridin-7-yl)-6-chloro-N-(2-fluoro-5-(trifluoromethoxy)benzyl)nicotinamide] |  |  | 20 to 200 | < 20 |  |
| Nc1nc2cc(-c3cc(C(=O)NCc4cc(F)ccc4OC(F)(F)F)cnc3Cl)ccn2n1 [Example 369, 5-(2-amino-[1,2,4]triazolo[1,5-a]pyridin-7-yl)-6-chloro-N-(5-fluoro-2-(trifluoromethoxy)benzyl)nicotinamide] |  |  | 20 to 200 | < 20 |  |
| C[C@@H](NC(=O)c1cnc(Cl)c(-c2ccn3nc(N)nc3c2)c1)c1ccccc1OC(F)(F)F [Example 370, (R)-5-(2-amino-[1,2,4]triazolo[1,5-a]pyridin-7-yl)-6-chloro-N-(1-(2-(trifluoromethoxy)phenyl)ethyl)nicotinamide] |  |  | 20 to 200 | < 20 |  |
| C[C@H](NC(=O)c1cnc(Cl)c(-c2ccn3nc(N)nc3c2)c1)c1cc(OC(F)(F)F)ccc1F [Example 371, (S)-5-(2-amino-[1,2,4]triazolo[1,5-a]pyridin-7-yl)-6-chloro-N-(1-(2-fluoro-5-(trifluoromethoxy)phenyl)ethyl)nicotinamide] |  |  | 20 to 200 | < 20 |  |
| Nc1nc2cc(-c3cc(C(=O)NCc4ccccc4OC(F)(F)F)cnc3Cl)ccn2n1 [Example 372, 5-(2-amino-[1,2,4]triazolo[1,5-a]pyridin-7-yl)-6-chloro-N-(2-(trifluoromethoxy)benzyl)nicotinamide] | > 200 |  |  | < 20 |  |
| CNc1cn2nc(-c3cnc(OC)c(C(=O)N[C@@H](C)c4cc(OC(F)(F)F)ccc4F)c3)ccc2n1 [Example 374, (S)—N-(1-(2-fluoro-5-(trifluoromethoxy)phenyl)ethyl)-2-methoxy-5-(2-(methylamino)imidazo[1,2-b]pyridazin-6-yl)nicotinamide] |  |  | 20 to 200 | < 20 |  |
| [2H]C([2H])([2H])Nc1nc2cc(-c3cnc(C)c(C(=O)N[C@H](C)c4cc(OC(F)(F)F)ccc4F)c3)ccn2n1 [Example 375, (R)—N-(1-(2-fluoro-5-(trifluoromethoxy)phenyl)ethyl)-2-methyl-5-(2-((methyl-d3)amino)-[1,2,4]triazolo[1,5-a]pyridin-7-yl)nicotinamide] |  |  | 20 to 200 | < 20 |  |
| COc1ncc(-c2ccn3nc(N)nc3c2)cc1C(=O)NCc1cc(F)ccc1C(=O)N1CCC(F)(F)C1 [Example 376, 5-(2-amino-[1,2,4]triazolo[1,5-a]pyridin-7-yl)-N-(2-(3,3-difluoropyrrolidine-1-carbonyl)-5-fluorobenzyl)-2-methoxynicotinamide] |  |  |  | < 20 | < 20 |
| COc1ncc(-c2ccn3nc(N)nc3c2)cc1C(=O)NCc1ccccc1C(=O)N1CCC(F)(F)C1 [Example 377, 5-(2-amino-[1,2,4]triazolo[1,5-a]pyridin-7-yl)-N-(2-(3,3-difluoropyrrolidine-1-carbonyl)benzyl)-2-methoxynicotinamide] |  | 20 to 200 | 20 to 200 |  |  |
| COc1nc(C)c(-c2ccn3nc(N)nc3c2)cc1C(=O)NCc1cc(F)cc(F)c1C(=O)N1CCC(F)(F)C1 [Example 380, 5-(2-amino-[1,2,4]triazolo[1,5-a]pyridin-7-yl)-N-(2-(3,3-difluoropyrrolidine-1-carbonyl)-3,5-difluorobenzyl)-2-methoxy-6-methylnicotinamide] |  |  |  | < 20 | < 20 |
| COc1nc(C)c(-c2ccn3nc(N)nc3c2)cc1C(=O)NCc1cc(F)ccc1C(=O)N1CCC(F)(F)C1 [Example 381, 5-(2-amino-[1,2,4]triazolo[1,5-a]pyridin-7-yl)-N-(2-(3,3-difluoropyrrolidine-1-carbonyl)-5-fluorobenzyl)-2-methoxy-6-methylnicotinamide] |  |  |  | < 20 | < 20 |
| [2H]C([2H])([2H])[C@@H](NC(=O)c1nc(-c2ccn3nc(N)nc3c2)cnc1OC)c1cc(OC(F)(F)F)ccc1F [Example 383, (R)-6-(2-amino-[1,2,4]triazolo[1,5-a]pyridin-7-yl)-N-(1-(2-fluoro-5-(trifluoromethoxy)phenyl)ethyl-2,2,2-d3)-3-methoxypyrazine-2-carboxamide] | > 200 |  |  | < 20 |  |
| COc1ncc(-c2ccn3nc(N)nc3c2)nc1C(=O)NCc1cc(OC(F)(F)F)ccc1F [Example 384, 6-(2-amino-[1,2,4]triazolo[1,5-a]pyridin-7-yl)-N-(2-fluoro-5-(trifluoromethoxy)benzyl)-3-methoxypyrazine-2-carboxamide] | > 200 | 20 to 200 |  |  |  |
| COc1ncc(-c2ccn3nc(N)nc3c2)nc1C(=O)NCCC(C)c1ccccc1 (stereo not shown) [Example 385, 6-(2-amino-[1,2,4]triazolo[1,5-a]pyridin-7-yl)-3-methoxy-N-(3-phenylbutyl)pyrazine-2-carboxamide] | > 200 | 20 to 200 |  |  |  |
| COc1nnc(-c2ccn3nc(N)nc3c2)cc1C(=O)NCc1cc(OC(F)(F)F)ccc1F [Example 386, 6-(2-amino-[1,2,4]triazolo[1,5-a]pyridin-7-yl)-N-(2-fluoro-5-(trifluoromethoxy)benzyl)-3-methoxypyridazine-4-carboxamide] | > 200 | 20 to 200 |  |  |  |
| COc1nnc(-c2ccn3nc(N)nc3c2)cc1C(=O)NCCC(C)c1ccccc1 (stereo not shown) [Example 387, 6-(2-amino-[1,2,4]triazolo[1,5-a]pyridin-7-yl)-3-methoxy-N-(3-phenylbutyl)pyridazine-4-carboxamide] | > 200 | 20 to 200 |  |  |  |
| COc1cnc(-c2ccn3nc(N)nc3c2)cc1C(=O)NCc1cc(OC(F)(F)F)ccc1F [Example 388, 2-(2-amino-[1,2,4]triazolo[1,5-a]pyridin-7-yl)-N-(2-fluoro-5-(trifluoromethoxy)benzyl)-5-methoxyisonicotinamide] |  | 20 to 200 | 20 to 200 |  |  |
